Numbers after ± are expanded uncertainties.
How the values were obtained:
[1] = 103 kPa, Liquid, Vibrating tube method
[2] = refractive index (Na D-line) (dimensionless); conditions: 103 kPa, Liquid, Standard Abbe refractometry
[3] = refractive index (Na D-line) (dimensionless); xn = mol fraction of the nth substance listed; conditions: 103 kPa, Liquid, Standard Abbe refractometry, x1 = 1
[4] = xn = mol fraction of the nth substance listed; conditions: 103 kPa, Liquid, Vibrating tube method, x1 = 1

SMILES | mass density ([1]; 298.15 K) [kg/m3] | mass density ([1]; 303.15 K) [kg/m3] | mass density ([1]; 308.15 K) [kg/m3] | mass density ([1]; 313.15 K) [kg/m3] | mass density ([1]; 318.15 K) [kg/m3] | refractive index ([2]; 298.15 K) | refractive index ([2]; 303.15 K) | refractive index ([2]; 308.15 K) | refractive index ([2]; 313.15 K) | refractive index ([2]; 318.15 K) | refractive index ([3]; 298.15 K) | refractive index ([3]; 303.15 K) | refractive index ([3]; 308.15 K) | refractive index ([3]; 313.15 K) | refractive index ([3]; 318.15 K) | mass density ([4]; 298.15 K) [kg/m3] | mass density ([4]; 303.15 K) [kg/m3] | mass density ([4]; 308.15 K) [kg/m3] | mass density ([4]; 313.15 K) [kg/m3] | mass density ([4]; 318.15 K) [kg/m3] | also measured
CO[Si](C)(C)OC [dimethoxydimethylsilane] | 857.9 ± 0.41 | 852.05 ± 0.41 | 846.16 ± 0.41 | 840.22 ± 0.42 | 834.24 ± 0.42 | 1.36816 ± 0.004 | 1.36559 ± 0.004 | 1.36297 ± 0.004 | 1.36035 ± 0.004 | 1.35771 ± 0.004 |  |  |  |  |  |  |  |  |  |  | 
C=C[Si](OC)(OC)OC [trimethoxy(vinyl)silane] | 965.69 ± 0.41 | 960.02 ± 0.41 | 954.26 ± 0.41 | 948.47 ± 0.41 | 942.63 ± 0.41 | 1.39022 ± 0.004 | 1.38775 ± 0.004 | 1.38535 ± 0.004 | 1.3829 ± 0.004 | 1.38046 ± 0.004 |  |  |  |  |  |  |  |  |  |  | 
CCO[Si](C)(C)OCC [dimethyldiethoxysilane] | 835.43 ± 0.41 | 830.05 ± 0.42 | 824.66 ± 0.42 | 819.23 ± 0.42 | 813.79 ± 0.42 | 1.38045 ± 0.004 | 1.37791 ± 0.004 | 1.37532 ± 0.004 | 1.37275 ± 0.004 | 1.37015 ± 0.004 |  |  |  |  |  |  |  |  |  |  | mass density ([1]; 293.15 K): 840.11 ± 0.41 kg/m3; refractive index ([2]; 293.15 K): 1.38452 ± 0.004
CO[Si](C)(OC)c1ccccc1 [dimethoxymethylphenylsilane] + C=C[Si](C)(OCC)OCC |  |  |  |  |  |  |  |  |  |  | 1.47763 ± 0.004 | 1.47528 ± 0.004 | 1.47293 ± 0.004 | 1.47061 ± 0.004 | 1.46825 ± 0.004 | 1000.78 ± 0.41 | 996.13 ± 0.41 | 991.48 ± 0.41 | 986.81 ± 0.41 | 982.15 ± 0.41 | 
CO[Si](C)(OC)c1ccccc1 [dimethoxymethylphenylsilane] + CO[Si](C)(C)OC |  |  |  |  |  |  |  |  |  |  | 1.47763 ± 0.004 | 1.47528 ± 0.004 | 1.47293 ± 0.004 | 1.47061 ± 0.004 | 1.46825 ± 0.004 | 1000.78 ± 0.41 | 996.13 ± 0.41 | 991.48 ± 0.41 | 986.81 ± 0.41 | 982.15 ± 0.41 | 
CO[Si](C)(OC)c1ccccc1 [dimethoxymethylphenylsilane] + C=C[Si](OC)(OC)OC |  |  |  |  |  |  |  |  |  |  | 1.47763 ± 0.004 | 1.47528 ± 0.004 | 1.47293 ± 0.004 | 1.47061 ± 0.004 | 1.46825 ± 0.004 | 1000.78 ± 0.41 | 996.13 ± 0.41 | 991.48 ± 0.41 | 986.81 ± 0.41 | 982.15 ± 0.41 | 
CO[Si](C)(OC)c1ccccc1 [dimethoxymethylphenylsilane] + CCO[Si](C)(C)OCC |  |  |  |  |  |  |  |  |  |  | 1.47763 ± 0.004 | 1.47528 ± 0.004 | 1.47293 ± 0.004 | 1.47061 ± 0.004 | 1.46825 ± 0.004 | 1000.78 ± 0.41 | 996.13 ± 0.41 | 991.48 ± 0.41 | 986.81 ± 0.41 | 982.15 ± 0.41 | 
CO[Si](C)(OC)c1ccccc1 [dimethoxymethylphenylsilane] | 1000.78 ± 0.41 | 996.13 ± 0.41 | 991.48 ± 0.41 | 986.81 ± 0.41 | 982.15 ± 0.41 | 1.47763 ± 0.004 | 1.47528 ± 0.004 | 1.47293 ± 0.004 | 1.47061 ± 0.004 | 1.46825 ± 0.004 |  |  |  |  |  |  |  |  |  |  | 
C=C[Si](C)(OCC)OCC [methylvinyldiethoxysilane] | 856.25 ± 0.41 | 851.09 ± 0.41 | 845.89 ± 0.41 | 840.71 ± 0.41 | 835.44 ± 0.41 | 1.39751 ± 0.004 | 1.39501 ± 0.004 | 1.39249 ± 0.004 | 1.38997 ± 0.004 | 1.38742 ± 0.004 |  |  |  |  |  |  |  |  |  |  | mass density ([1]; 293.15 K): 862.21 ± 0.41 kg/m3; refractive index ([2]; 293.15 K): 1.40033 ± 0.004
